Laboratory results: US7049305B2, “Bile-acid conjugates providing for sustained systemic concentration of drugs” (XenoPort, Inc., priority 2000, dated 2006)

Target: T1, rPEPT1 (Rattus norvegicus, UniProt P51574)
T1 construct: expressed in transfected cells; host or cells: CHO cells
T1 sequence (P51574 1-710): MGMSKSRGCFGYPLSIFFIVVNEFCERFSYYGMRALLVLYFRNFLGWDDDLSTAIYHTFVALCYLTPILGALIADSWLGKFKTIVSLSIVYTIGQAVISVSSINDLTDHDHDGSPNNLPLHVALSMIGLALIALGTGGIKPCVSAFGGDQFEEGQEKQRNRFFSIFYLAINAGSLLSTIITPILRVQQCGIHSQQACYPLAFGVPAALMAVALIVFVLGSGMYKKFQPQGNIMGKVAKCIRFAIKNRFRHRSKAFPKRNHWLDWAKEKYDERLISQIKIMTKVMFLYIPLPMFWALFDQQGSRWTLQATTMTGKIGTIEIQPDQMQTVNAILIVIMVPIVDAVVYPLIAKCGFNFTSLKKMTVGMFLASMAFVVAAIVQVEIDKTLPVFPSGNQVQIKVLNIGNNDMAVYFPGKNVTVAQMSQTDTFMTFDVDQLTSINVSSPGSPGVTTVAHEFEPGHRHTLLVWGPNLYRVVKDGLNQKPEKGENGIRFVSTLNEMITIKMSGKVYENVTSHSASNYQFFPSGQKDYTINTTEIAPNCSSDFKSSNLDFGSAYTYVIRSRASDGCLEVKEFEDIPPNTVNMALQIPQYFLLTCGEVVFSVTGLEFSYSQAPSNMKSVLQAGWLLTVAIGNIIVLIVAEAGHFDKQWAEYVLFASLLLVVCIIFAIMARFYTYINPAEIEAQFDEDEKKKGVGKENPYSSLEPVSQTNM
Assay: Transport-induced currents in Xenopus oocytes expressing rPEPT1
Type: cell-based
Conditions: response relative to Gly-Sar, test compound 1 mM
Protocol: Rat and human PEPT1 and PEPT2 expressing CHO cell lines were prepared as described in PCT Application WO01/20331. Gabapentin-containing dipeptides were evaluated for interaction with the peptide transporters using a radiolabeled substrate uptake assay in a competitive inhibition format, as described in PCT Application WO01/20331. Transport-induced currents were also measured in Xenopus oocytes transfected with rat and human PEPT1 and PEPT2.

NCC(=O)NCC1(CC(=O)O)CCCCC1 [Gly-Gabapentin]
% Max. (Gly-Sar): 76%
